Legend:
Carbonic anhydrase 9 = Carbonic anhydrase 9 (Homo sapiens, UniProt Q16790)
Description: Inhibition of human CA9 by stopped-flow CO2 hydration method

Carbonic anhydrase 12 = Carbonic anhydrase 12 (Homo sapiens, UniProt O43570); test: Inhibition of human CA12 by stopped-flow CO2 hydration method
Chain of Carbonic anhydrase 12 (O43570 whole entry): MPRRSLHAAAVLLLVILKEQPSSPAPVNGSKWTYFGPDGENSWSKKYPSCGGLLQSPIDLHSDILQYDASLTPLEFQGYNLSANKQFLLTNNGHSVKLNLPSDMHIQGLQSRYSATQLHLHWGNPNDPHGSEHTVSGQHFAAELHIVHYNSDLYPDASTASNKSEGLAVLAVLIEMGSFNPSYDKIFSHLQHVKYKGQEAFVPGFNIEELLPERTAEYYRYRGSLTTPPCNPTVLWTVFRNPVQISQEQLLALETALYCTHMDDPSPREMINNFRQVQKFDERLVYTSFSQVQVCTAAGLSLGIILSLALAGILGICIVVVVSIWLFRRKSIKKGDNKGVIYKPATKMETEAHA

Ki (Carbonic anhydrase 9) [µM] | Ki (Carbonic anhydrase 12) [µM] | Structure (SMILES)
7.8 |  | CCOC(=O)[C@@H]1C[C@H]1Cc1c(Br)c(Br)c(OC)c(OC)c1Br
> 50 |  | COc1c(Br)c(Br)c(C[C@@H]2C[C@H]2C(=O)O)c(Br)c1OC
> 50 |  | CCOC(=O)[C@@H]1C[C@@H]1Cc1cc(OC)c(OC)c(Br)c1Br
1.1 |  | COc1ccc(C[C@@H]2C[C@H]2C(=O)O)cc1OC
9 |  | CCOC(=O)[C@@H]1C[C@H]1Cc1cc(OC)c(OC)c(Br)c1Br
> 50 | > 50 | COc1cc(C[C@@H]2C[C@H]2C(=O)O)c(Br)c(Br)c1OC
> 50 | > 50 | COc1cc(Br)c(C[C@@H]2C[C@H]2C(=O)O)c(Br)c1OC
> 50 |  | COc1cc(Br)c(C[C@H]2C[C@H]2C(=O)O)cc1OC
> 50 | > 50 | COc1cc(C[C@H]2C[C@H]2C(=O)O)c(Br)c(Br)c1OC

The remaining lines, values behind:

Structure (SMILES) | Ki (Carbonic anhydrase 9) [µM] | Ki (Carbonic anhydrase 12) [µM]
COc1c(Br)c(Br)c(C[C@H]2C[C@H]2C(=O)O)c(Br)c1OC | 10.5 | 
CCOC(=O)[C@@H]1C[C@H]1Cc1ccc(OC)c(OC)c1 | 9.1 | 
COc1ccc(C[C@@H]2C[C@@H]2C(=O)O)cc1OC | 8.8 | 
CCOC(=O)[C@@H]1C[C@H]1Cc1c(Br)cc(OC)c(OC)c1Br | 9.7 | 
COc1cc(Br)c(C[C@@H]2C[C@H]2C(=O)O)cc1OC | 9.8 | 
CCOC(=O)[C@@H]1C[C@@H]1Cc1c(Br)cc(OC)c(OC)c1Br | 8.9 | 
COc1ccc(C[C@@H]2C[C@H]2CO)cc1OC | 8.8 | 
COc1cc(Br)c(C[C@H]2C[C@H]2C(=O)O)c(Br)c1OC | > 50 | > 50
CCOC(=O)[C@@H]1C[C@H]1Cc1cc(OC)c(OC)cc1Br | 7.3 | 
CCOC(=O)[C@@H]1C[C@@H]1Cc1cc(OC)c(OC)cc1Br | 1 | 
COc1ccc(C[C@H]2C[C@H]2CO)cc1OC | 4.9 | 
CCOC(=O)[C@@H]1C[C@@H]1Cc1c(Br)c(Br)c(OC)c(OC)c1Br | > 50 | 
CCOC(=O)[C@@H]1C[C@@H]1Cc1ccc(OC)c(OC)c1 | 6.6 | 

— ChEMBL document CHEMBL4000141, “Synthesis and carbonic anhydrase isoenzymes I, II, IX, and XII inhibitory effects of dimethoxybromophenol derivatives incorporating cyclopropane moieties” (J Med Chem, 2015)
